Experimental data reported in patent US9113629B2, “4-amino-6-(4-substituted-phenyl)-picolinates and 6-amino-2-(4-substituted-phenyl)-pyrimidine-4-carboxylates and their use as herbicides” (DOW AGROSCIENCES LLC, priority 2013, dated 2015).
Where two headings read alike, the source gives them in different places.

Experiments:
[1] = tested on: STEME: common chickweed (Stellaria media); test: Post-emergent Test III, herbicidal activity in wheat and barley; assay type: in vivo
Method in brief: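 GR20, GR50, GR80 and GR90 come from probit analysis of visual injury scores (0 = none, 100 = complete kill) taken 21 d after treatment. Foliar application was by track sprayer delivering 187 L/ha at five rates, from high down to 1/16×, onto greenhouse plants at the 2–3 leaf stage, with solvent-blank controls.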

[2] = tested on: test plant species in Direct Seeded Rice; test: Postemergence herbicidal activity in direct seeded rice (Table 13); assay type: in vivo; details: for pest or weed control at 35 g/ha / pest or weed control at 70 g/ha: post-emergence, 504 h; for pest or weed control at 35 g/ha: 35 g ai/ha; for pest or weed control at 70 g/ha: 70 g ai/ha
Method in brief: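 Visual injury scores (0 no injury to 100 complete kill) taken 20-22 days after treatment were converted by probit analysis into GR20–GR90 doses. Treatment was an overhead track spray at 187 L/ha onto second-to-third true leaf plants, using acetone/DMSO (final 16.2%/0.5%) with Agri-dex crop oil; solvent blank served as control.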

[3] = BRAPP: broadleaf signalgrass, Brachiaria platyphylla, probit analysis
[4] = CYPSS: sedge (Cyperus difformis, esculentus, iria), probit analysis
[5] = ECHSS: barnyardgrass (Echinochloa crus-galli), junglerice (Echinochloa colonum), probit analysis
[6] = LEFSS: sprangletop (Leptochloa chinensis, Leptochloa dubia), probit analysis
[7] = SCPJU: Japanese bulrush, Scirpus juncoides, probit analysis
[8] = SEBEX: hemp sesbania, Sesbania exaltata, probit analysis
[9] = BRAPP: broadleaf signalgrass, Brachiaria platyphylla, read-out: Visual Growth Reduction (%) 21 Days After Application BRAPP
[10] = CYPSS: sedge (Cyperus difformis, esculentus, iria), read-out: Visual Growth Reduction (%) 21 Days After Application CYPSS
[11] = ECHSS: barnyardgrass (Echinochloa crus-galli), junglerice (Echinochloa colonum), read-out: Visual Growth Reduction (%) 21 Days After Application ECHSS
[12] = LEFSS: sprangletop (Leptochloa chinensis, Leptochloa dubia), read-out: Visual Growth Reduction (%) 21 Days After Application LEFSS
[13] = ORYSS: Oryza sativa, read-out: Visual Growth Reduction (%) 21 Days After Application ORYSS
[14] = SCPJU: Japanese bulrush, Scirpus juncoides, read-out: Visual Growth Reduction (%) 21 Days After Application SCPJU
[15] = SEBEX: hemp sesbania, Sesbania exaltata, read-out: Visual Growth Reduction (%) 21 Days After Application SEBEX

## COC(=O)c1nc(-c2ccc(Cl)c(F)c2)c(F)c(N)c1Cl [Compound 216]
[1]; Stellaria media, post-emergence, 504 h, 35 g ai/ha, read-out: Visual Growth Reduction (%) 21 Days After Application STEME
  pest or weed control at 35 g/ha: 30 to 44%
[1]; Stellaria media, post-emergence, 504 h, 70 g ai/ha, read-out: Visual Growth Reduction (%) 21 Days After Application STEME
  pest or weed control at 70 g/ha: 30 to 44%
[1]; Stellaria media, post-emergence, 504 h, 140 g ai/ha, read-out: Visual Growth Reduction (%) 21 Days After Application STEME
  pest or weed control at 140 g/ha: 75 to 84%
[1]; probit analysis, dose for growth reduction of 50 percent, 21 days after application
  GR50 STEME: 52 g ai/ha
[1]; probit analysis, dose for growth reduction of 80 percent, 21 days after application
  GR80 STEME: >140 g ai/ha
[2]; [3]
  GR50 BRAPP: 8 g ai/ha
  GR80 BRAPP: 27 g ai/ha
[2]; [4]
  GR50 CYPSS: 10 g ai/ha
  GR80 CYPSS: 70 g ai/ha
[2]; [5]
  GR50 ECHSS: 4 g ai/ha
  GR80 ECHSS: 15 g ai/ha
[2]; [6]
  GR50 LEFSS: 8 g ai/ha
  GR80 LEFSS: 23 g ai/ha
[2]; ORYSS: Oryza sativa (crop), probit analysis
  GR20 ORYSS: >70 g ai/ha
[2]; [7]
  GR50 SCPJU: 1 g ai/ha
  GR80 SCPJU: 1 g ai/ha
[2]; [8]
  GR50 SEBEX: 1 g ai/ha
  GR80 SEBEX: 1 g ai/ha
[2]; [9]
  pest or weed control at 35 g/ha: 85 to 94%
  pest or weed control at 70 g/ha: 85 to 94%
[2]; [10]
  pest or weed control at 35 g/ha: 85 to 94%
  pest or weed control at 70 g/ha: 85 to 94%
[2]; [11]
  pest or weed control at 35 g/ha: 85 to 94%
  pest or weed control at 70 g/ha: 95 to 100%
[2]; [12]
  pest or weed control at 35 g/ha: 85 to 94%
  pest or weed control at 70 g/ha: 95 to 100%
[2]; [13]
  pest or weed control at 35 g/ha: 0 to 29%
  pest or weed control at 70 g/ha: 0 to 29%
[2]; [14]
  pest or weed control at 35 g/ha: 95 to 100%
  pest or weed control at 70 g/ha: 95 to 100%
[2]; [15]
  pest or weed control at 35 g/ha: 95 to 100%
  pest or weed control at 70 g/ha: 95 to 100%
